From patent US11840686B2, “Modulation of prekallikrein (PKK) expression” (Ionis Pharmaceuticals, Inc., priority 2013, dated 2023)
Strand notation (5' to 3'): a small letter for the sugar, then the base; units joined by * are phosphorothioate-linked, units joined directly phosphodiester-linked; [ ] holds rarer units or linkages, { } end groups; capitals alone tell only the bases. e = 2'-O-(2-methoxyethyl) (MOE); [5mC] = 5-methylcytosine; d = 2'-deoxy (DNA)

Columns and labels:
human PKK mRNA [1] = test: Antisense inhibition of human PKK mRNA in HepaRG cells, 3,000 nM (Example 1); format: cell-based; settings: relative to untreated control cells
In short: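 HepaRG cells, 20,000 per well, were electroporated with 3,000 nM 5-10-5 MOE gapmer (phosphorothioate, 5-methylcytosine). After about 24 h, PKK mRNA was measured by qRT-PCR with primer probe set RTS3454 and normalised to RIBOGREEN total RNA. Values are percent inhibition versus untreated cells.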

human PKK mRNA [2] = test: Dose-dependent antisense inhibition of human PKK in HepaRG cells, 0.12-10.00 uM (Example 4); format: cell-based; settings: electroporation, ~16 h
Experimental: Cells were plated at a density of 20,000 cells per well and transfected using electroporation with 0.12 μM, 0.37 μM, 1.11 μM, 3.33 μM, and 10.00 μM concentrations of antisense oligonucleotide. After a treatment period of approximately 16 hours, RNA was isolated from the cells and PKK mRNA levels were measured by quantitative real-time PCR. Human PKK primer probe set RTS3454 was used to measure mRNA levels. PKK mRNA levels were adjusted according to total RNA content, as measured by RIBOGREEN®. The antisense oligonucleotides were tested in a series of experiments that had similar culture conditions. Results are presented as percent inhibition of PKK, relative to untreated control cells.
The half maximal inhibitory concentration (IC50) of each oligonucleotide is also presented.

[3] = Table 2, PKK mRNA, HepaRG cells, 3,000 nM, electroporation, ~24 h
[4] = Table 3, HepaRG cells, electroporation with 3,000 nM antisense oligonucleotide, approx. 24 hours, PKK mRNA by RT-PCR (RTS3454)
[5] = Table 4, HepaRG cells, electroporation with 3,000 nM antisense oligonucleotide, approx. 24 hours, PKK mRNA by RT-PCR (RTS3454)

Row | Substance | % inhibition (human PKK mRNA [1]; [3]) | percent inhibition of PKK at 0.12 μM (human PKK mRNA [2]; Table 33, 0.12 μM) | percent inhibition of PKK at 0.37 μM (human PKK mRNA [2]; Table 33, 0.37 μM) | percent inhibition of PKK at 1.11 μM (human PKK mRNA [2]; Table 33, 1.11 μM) | percent inhibition of PKK at 3.33 μM (human PKK mRNA [2]; Table 33, 3.33 μM) | percent inhibition of PKK at 10.00 μM (human PKK mRNA [2]; Table 33, 10.00 μM) | IC50 (human PKK mRNA [2]; Table 33, PKK mRNA) | percent inhibition of PKK at 0.12 μM (human PKK mRNA [2]; Table 32, 0.12 μM) | percent inhibition of PKK at 0.37 μM (human PKK mRNA [2]; Table 32, 0.37 μM) | percent inhibition of PKK at 1.11 μM (human PKK mRNA [2]; Table 32, 1.11 μM) | percent inhibition of PKK at 3.33 μM (human PKK mRNA [2]; Table 32, 3.33 μM) | percent inhibition of PKK at 10.00 μM (human PKK mRNA [2]; Table 32, 10.00 μM) | IC50 (human PKK mRNA [2]; Table 32, PKK mRNA) | % inhibition (human PKK mRNA [1]; [4]) | % inhibition (human PKK mRNA [1]; [5])
1 | 531071 (e[5mC]*eT*eG*e[5mC]*eT*d[5mC]*dT*dG*dT*dG*dT*dT*dT*dT*d[5mC]*eT*e[5mC]*eT*eA*eA; antisense) [compound 531071] | 73% | 23% | 37% | 56% | 83% | 83% | 700 nM | – | – | – | – | – | – | – | –
2 | 531078 (eA*eG*e[5mC]*eA*eG*d[5mC]*dT*d[5mC]*dT*dG*dA*dG*dT*dG*d[5mC]*eA*e[5mC]*eT*eG*eT; antisense) [compound 531078] | 77% | – | – | – | – | – | – | 10% | 27% | 54% | 69% | 92% | 1100 nM | – | –
3 | 531110 (antisense eG*e[5mC]*e[5mC]*eT*eG*dT*dT*dT*dG*dG*dT*dG*dG*dT*d[5mC]*eT*e[5mC]*eT*eT*e[5mC]) [compound 531110] | – | 14% | 29% | 49% | 76% | 85% | 1100 nM | – | – | – | – | – | – | 86% | –
4 | 531121 (antisense eT*eT*eG*eG*eT*d[5mC]*dT*dA*d[5mC]*dA*dG*dA*dT*dT*d[5mC]*eA*eA*eT*eG*e[5mC]) [compound 531121] | – | 0% | 13% | 47% | 69% | 79% | 1500 nM | – | – | – | – | – | – | 72% | –
5 | 531123 (antisense eT*e[5mC]*e[5mC]*e[5mC]*eA*dG*d[5mC]*dT*d[5mC]*d[5mC]*dA*dG*dT*d[5mC]*dA*e[5mC]*e[5mC]*eA*e[5mC]*e[5mC]) [compound 531123] | – | 14% | 43% | 51% | 71% | 64% | 900 nM | – | – | – | – | – | – | 74% | –
6 | 531172 (antisense eT*eT*e[5mC]*eA*eA*dG*d[5mC]*d[5mC]*dT*dG*dG*dG*d[5mC]*dA*dG*e[5mC]*eA*e[5mC]*eA*eG) [compound 531172] | – | 0% | 16% | 37% | 60% | 60% | 2100 nM | – | – | – | – | – | – | – | 71%
7 | 531198 (eG*eG*eG*eA*eT*dT*dT*dT*dG*d[5mC]*dT*dG*dA*dA*dG*e[5mC]*eT*eG*eG*eT; antisense) [compound 531198] | – | 0% | 35% | 62% | 76% | 60% | 800 nM | – | – | – | – | – | – | – | 73%
8 | 531232 (e[5mC]*eT*eG*eT*eA*d[5mC]*dT*dA*dG*dT*dT*dT*d[5mC]*d[5mC]*dT*eA*eT*eA*eA*e[5mC]; antisense) [compound 531232] | – | 15% | 26% | 40% | 62% | 76% | 1700 nM | – | – | – | – | – | – | – | 85%
9 | 531233 (eA*e[5mC]*eT*eG*eT*dA*d[5mC]*dT*dA*dG*dT*dT*dT*d[5mC]*d[5mC]*eT*eA*eT*eA*eA; antisense) [compound 531233] | – | 17% | 27% | 50% | 77% | 84% | 1000 nM | – | – | – | – | – | – | – | 86%
